Measurements taken from the CheMixHub viscosity set.

Experiment: xn = mol fraction of the nth substance listed

C1CCCC1 + CC(C)CCO
viscosity [mPa·s], 101 kPa
Conditions | 298.15 K | 308.15 K
x1 = 0.0443 | 3.482 | 2.238
x1 = 0.0808 | 3.173 | 2.06
x1 = 0.1182 | 2.966 | 1.962
x1 = 0.2087 | 2.37 | 1.573
x1 = 0.3063 | 1.857 | 1.278
x1 = 0.3959 | 1.511 | 1.09
x1 = 0.521 | 1.086 | 0.7741
x1 = 0.616 | 0.8169 | 0.6771
x1 = 0.7042 | 0.6669 | 0.5329
x1 = 0.8044 | 0.5675 | 0.4453
x1 = 0.8984 | 0.4649 | 0.3966
x1 = 0.9358 | 0.4361 | 0.3784
x2 = 0.0075 | 0.4035 | 0.353

C1CCCC1 + CC(C)CO
viscosity [mPa·s], 101 kPa
Conditions | 298.15 K | 308.15 K
x1 = 0.0603 | 2.848 | 1.934
x1 = 0.1025 | 2.58 | 1.68
x1 = 0.1812 | 2.236 | 1.478
x1 = 0.2538 | 1.84 | 1.237
x1 = 0.3617 | 1.355 | 0.9824
x1 = 0.4947 | 0.9586 | 0.7014
x1 = 0.5816 | 0.8054 | 0.6185
x1 = 0.6617 | 0.6549 | 0.5283
x1 = 0.7863 | 0.5622 | 0.4429
x1 = 0.8809 | 0.4552 | 0.3863
x1 = 0.9205 | 0.4381 | 0.3695
x1 = 0.9474 | 0.4233 | 0.3609

C1CCCC1 + CC(C)O
101 kPa
Conditions | viscosity [mPa·s]
298.15 K, x1 = 0.0779 | 1.686
298.15 K, x1 = 0.1506 | 1.405
298.15 K, x1 = 0.1861 | 1.302
298.15 K, x1 = 0.2303 | 1.179
298.15 K, x1 = 0.26 | 1.129
298.15 K, x1 = 0.3112 | 1.009
298.15 K, x1 = 0.3879 | 0.8567
298.15 K, x1 = 0.4568 | 0.7573
298.15 K, x1 = 0.5489 | 0.6423
298.15 K, x1 = 0.6378 | 0.5548
298.15 K, x1 = 0.7196 | 0.5314
298.15 K, x1 = 0.8237 | 0.455
298.15 K, x1 = 0.9124 | 0.4265
308.15 K, x1 = 0.0365 | 1.373
308.15 K, x1 = 0.081 | 1.28
308.15 K, x1 = 0.1332 | 1.125
308.15 K, x1 = 0.1521 | 1.101
308.15 K, x1 = 0.1757 | 1.034
308.15 K, x1 = 0.1856 | 1.015
308.15 K, x1 = 0.2382 | 0.9575
308.15 K, x1 = 0.2694 | 0.9099
308.15 K, x1 = 0.3483 | 0.7902
308.15 K, x1 = 0.3863 | 0.7261
308.15 K, x1 = 0.4288 | 0.6806
308.15 K, x1 = 0.478 | 0.6312
308.15 K, x1 = 0.5296 | 0.5689
308.15 K, x1 = 0.5891 | 0.5186
308.15 K, x1 = 0.6269 | 0.4877
308.15 K, x1 = 0.6889 | 0.4468
308.15 K, x1 = 0.7 | 0.4437
308.15 K, x1 = 0.7248 | 0.4309
308.15 K, x1 = 0.7619 | 0.4179
308.15 K, x1 = 0.98 | 0.3745
308.15 K, x2 = 0.0108 | 0.3641

CN1CCCC1=O + CC(C)O
298.15 K, 101 kPa
Conditions | viscosity [mPa·s]
x1 = 0.0609 | 1.8
x1 = 0.1034 | 1.703
x1 = 0.1399 | 1.641
x1 = 0.1993 | 1.57
x1 = 0.2332 | 1.539
x1 = 0.3074 | 1.5
x1 = 0.3626 | 1.454
x1 = 0.4127 | 1.45
x1 = 0.4612 | 1.481
x1 = 0.5022 | 1.488
x1 = 0.5599 | 1.497
x1 = 0.6107 | 1.511
x1 = 0.6683 | 1.53
x1 = 0.7081 | 1.543
x1 = 0.7567 | 1.561
x1 = 0.794 | 1.579
x1 = 0.8562 | 1.608
x1 = 0.9199 | 1.633

NCCO + CC(C)O
viscosity [mPa·s], 100 kPa
Conditions | x1 = 0.1 | x1 = 0.2 | x1 = 0.3 | x1 = 0.4 | x1 = 0.5 | x1 = 0.6 | x1 = 0.7 | x1 = 0.8 | x1 = 0.9
303.15 K | 2.11 | 2.53 | 3.08 | 3.86 | 4.9 | 6.12 | 7.7 | 9.55 | 11.9
313.15 K | 1.63 | 1.92 | 2.31 | 2.88 | 3.55 | 4.35 | 5.37 | 6.54 | 7.97
323.15 K | 1.27 | 1.49 | 1.78 | 2.21 | 2.65 | 3.22 | 3.89 | 4.69 | 5.64

OCc1ccccc1 + CC(C)O
viscosity [mPa·s], 101 kPa
Conditions | x1 = 0.076 | x1 = 0.1562 | x1 = 0.2409 | x1 = 0.3305 | x1 = 0.4254 | x1 = 0.5262 | x1 = 0.6334 | x1 = 0.7476 | x1 = 0.8695
298.15 K | 2.033 | 2.167 | 2.366 | 2.607 | 2.88 | 3.203 | 3.57 | 3.975 | 4.423
303.15 K | 1.776 | 1.896 | 2.06 | 2.258 | 2.486 | 2.756 | 3.06 | 3.4 | 3.785
308.15 K | 1.532 | 1.649 | 1.796 | 1.975 | 2.172 | 2.406 | 2.675 | 2.975 | 3.304
313.15 K | 1.338 | 1.432 | 1.556 | 1.701 | 1.87 | 2.07 | 2.303 | 2.557 | 2.828

C1CCCC1 + CCC(C)(C)O
viscosity [mPa·s], 101 kPa
Conditions | 298.15 K | 308.15 K
x1 = 0.0429 | 2.979 | 1.779
x1 = 0.067 | 2.668 | 1.62
x1 = 0.1245 | 2.256 | 1.413
x1 = 0.2079 | 1.793 | 1.151
x1 = 0.3116 | 1.297 | 0.9115
x1 = 0.3957 | 1.073 | 0.7831
x1 = 0.5173 | 0.8412 | 0.6798
x1 = 0.5982 | 0.7558 | 0.5719
x1 = 0.683 | 0.6454 | 0.5099
x1 = 0.8095 | 0.508 | 0.4267
x1 = 0.8844 | 0.4827 | 0.4072
x1 = 0.9127 | 0.4379 | 0.3726
x1 = 0.944 | 0.4169 | 0.3547

C1CCCC1 + CCC(C)=O
viscosity [mPa·s], 101.33 kPa
Conditions | 293.15 K | 298.15 K | 303.15 K
x1 = 0.0472 | 0.397 | 0.377 | 0.358
x1 = 0.0981 | 0.395 | 0.375 | 0.358
x1 = 0.1929 | 0.394 | 0.372 | 0.354
x1 = 0.2932 | 0.39 | 0.37 | 0.353
x1 = 0.3753 | 0.39 | 0.37 | 0.352
x1 = 0.4966 | 0.393 | 0.373 | 0.354
x1 = 0.6189 | 0.394 | 0.374 | 0.355
x1 = 0.6838 | 0.398 | 0.377 | 0.359
x1 = 0.8034 | 0.407 | 0.387 | 0.367
x1 = 0.9061 | 0.419 | 0.397 | 0.377
x1 = 0.9499 | 0.426 | 0.405 | 0.383
